# Data reported in ChEMBL document CHEMBL1123664, “Preparation and antitumor activity of new mitomycin A analogues” (J Med Chem, 1987).
# Values joined by “and” are separate entries in the source; they are usually repeats but may differ in a detail not shown here. Equal entries are not always repeated.
# How the values were obtained:
# [1] = test system: P388; test: Antitumor activity against intraperitoneally implanted P388 leukemia cells in mice expressed as ratio of median survival time for treated group to that of control group at an optimal dose of 12.8 mg/kg; format: functional, Mus musculus; conditions: route intraperitoneal
# [2] = test system: P388; test: Antitumor activity against intraperitoneally implanted P388 leukemia cells in mice at an optimal dose of 12.8 mg/kg expressed as […] effective dose; format: functional; conditions: Mus musculus, P388, ip, route intraperitoneal, read-out: MED
# [3] = Partition coefficient (logP); format: physicochemical; conditions: octanol/water
# [4] = test system: P388; test: Antitumor activity against intraperitoneally implanted P388 leukemia cells in mice expressed as ratio of median survival time for treated group to that of control group at an optimal dose of 3.2 mg/kg; format: functional, Mus musculus; conditions: route intraperitoneal
# [5] = test system: P388; test: Antitumor activity against intraperitoneally implanted P388 leukemia cells in mice expressed as ratio of median survival time for treated group to that of control group at an optimal dose of 1.6 mg/kg; format: functional, Mus musculus; conditions: route intraperitoneal
# [6] = test system: P388; test: Antitumor activity against intraperitoneally implanted P388 leukemia cells in mice at an optimal dose of 1.6 mg/kg expressed as […] effective dose; format: functional; conditions: Mus musculus, P388, ip, route intraperitoneal, read-out: MED
# [7] = test system: B16; test: Antitumor activity against subcutaneously B16 melanoma cells in mice expressed as ratio of median survival time for treated group to that of control group at an optimal dose of 1.6 mg/kg; format: functional, Mus musculus; conditions: route subcutaneous
# [8] = test system: B16; test: Antitumor activity against subcutaneously B16 melanoma cells in mice at an optimal dose of 1.6 mg/kg expressed as […] effective dose; format: functional; conditions: Mus musculus, B16, sc, route subcutaneous, read-out: MED
# [9] = test system: B16; test: Antitumor activity against subcutaneously B16 melanoma cells in mice expressed as ratio of median survival time for treated group to that of control group at an optimal dose of 1.2 mg/kg; format: functional, Mus musculus; conditions: route subcutaneous
# [10] = test system: B16; test: Antitumor activity against subcutaneously B16 melanoma cells in mice at an optimal dose of 1.2 mg/kg expressed as […] effective dose; format: functional; conditions: Mus musculus, B16, sc, route subcutaneous, read-out: MED
# [11] = test system: P388; test: Antitumor activity against intraperitoneally implanted P388 leukemia cells in mice expressed as ratio of median survival time for treated group to that of control group at an optimal dose of 0.4 mg/kg; format: functional, Mus musculus; conditions: route intraperitoneal
# [12] = test system: P388; test: Antitumor activity against intraperitoneally implanted P388 leukemia cells in mice at an optimal dose of 3.2 mg/kg expressed as […] effective dose; format: functional; conditions: Mus musculus, P388, ip, route intraperitoneal, read-out: MED
# [13] = test system: B16; test: Antitumor activity against subcutaneously B16 melanoma cells in mice expressed as ratio of median survival time for treated group to that of control group at an optimal dose of 0.8 mg/kg; format: functional, Mus musculus; conditions: route subcutaneous
# [14] = test system: P388; test: Antitumor activity against intraperitoneally implanted P388 leukemia cells in mice expressed as ratio of median survival time for treated group to that of control group at an optimal dose of 0.8 mg/kg; format: functional, Mus musculus; conditions: route intraperitoneal
# [15] = test system: P388; test: Antitumor activity against intraperitoneally implanted P388 leukemia cells in mice at an optimal dose of 0.8 mg/kg expressed as […] effective dose; format: functional; conditions: Mus musculus, P388, ip, route intraperitoneal, read-out: MED
# [16] = test system: B16; test: Antitumor activity against subcutaneously B16 melanoma cells in mice expressed as ratio of median survival time for treated group to that of control group at an optimal dose of 0.4 mg/kg; format: functional, Mus musculus; conditions: route subcutaneous
# [17] = test system: B16; test: (§1) Antitumor activity against subcutaneously B16 melanoma cells in mice expressed as ratio of median survival time for treated group to that of control group at an optimal dose of 0.6 mg/kg; format: functional, Mus musculus; conditions: route subcutaneous
# [18] = test system: B16; test: as §1; format: functional, Mus musculus; conditions: route subcutaneous; remark: listed apart in the source
# [19] = test system: B16; test: (§2) Antitumor activity against subcutaneously B16 melanoma cells in mice expressed as ratio of median survival time for treated group to that of control group at an optimal dose of 1-3 mg/kg; format: functional, Mus musculus
# [20] = test system: B16; test: Antitumor activity against subcutaneously B16 melanoma cells in mice at an optimal dose of 0.8 mg/kg expressed as […] effective dose; format: functional, Mus musculus; conditions: route subcutaneous; for minimal effective dose at 0.8 mg/kg: Mus musculus, B16, sc, read-out: MED
# [21] = test system: B16; test: Antitumor activity against subcutaneously B16 melanoma cells in mice at an optimal dose of 0.6 mg/kg expressed as […] effective dose; format: functional, Mus musculus; conditions: route subcutaneous
# [22] = test system: P388; test: Antitumor activity against intraperitoneally implanted P388 leukemia cells in mice at an optimal dose of 0.8 mg/kg gexpressed as […] effective dose; format: functional; conditions: Mus musculus, P388, ip, route intraperitoneal, read-out: MED
# [23] = test system: B16; test: Antitumor activity against subcutaneously B16 melanoma cells in mice expressed as ratio of median survival time for treated group to that of control group at an optimal dose of 0.2 mg/kg; format: functional, Mus musculus; conditions: route subcutaneous
# [24] = test system: B16; test: Antitumor activity against subcutaneously B16 melanoma cells in mice at an optimal dose of 0.2 mg/kg expressed as […] effective dose; format: functional; conditions: Mus musculus, B16, sc, route subcutaneous, read-out: MED
# [25] = test system: B16; test: Antitumor activity against subcutaneously B16 melanoma cells in mice at an optimal dose of 0.4 mg/kg expressed as […] effective dose; format: functional; conditions: Mus musculus, B16, sc, route subcutaneous, read-out: MED
# [26] = test system: B16; test: as §2; format: functional, Mus musculus; remark: listed apart in the source
# [27] = test system: B16; test: Antitumor activity against subcutaneously B16 melanoma cells in mice expressed as ratio of median survival time for treated group to that of control group at an optimal dose of 0.3 mg/kg; format: functional, Mus musculus; conditions: route subcutaneous
# [28] = test system: B16; test: Antitumor activity against subcutaneously B16 melanoma cells in mice at an optimal dose of 0.3 mg/kg expressed as […] effective dose; format: functional; conditions: Mus musculus, B16, sc, route subcutaneous, read-out: MED
structure (smiles),measurement,setting,value
CO[C@@]12C(COC(N)=O)C3=C(C(=O)C(C)=C(OCC(O)CO)C3=O)N1CC1NC12 (some centres undefined),T/C,[1],225% and 205%
same,minimal effective dose at 12.8 mg/kg,[2],0.2 mg/kg
CO[C@@]12C(COC(N)=O)C3=C(C(=O)C(C)=C(OC(C)C)C3=O)N1CC1NC12 (some centres undefined),logP,[3],1.26
same,T/C,[4],174%
C=CCOC1=C(C)C(=O)C2=C(C1=O)C(COC(N)=O)[C@@]1(OC)C3NC3CN21 (some centres undefined),logP,[3],0.87
same,T/C,[5],156%
same,minimal effective dose at 1.6 mg/kg,[6],0.1 mg/kg
COC(COC1=C(C)C(=O)C2=C(C1=O)C(COC(N)=O)[C@@]1(OC)C3NC3CN21)OC (some centres undefined),T/C,[7],216%
same,minimal effective dose at 1.6 mg/kg,[8],0.4 mg/kg
same,T/C,[5],269%
same,minimal effective dose at 1.6 mg/kg,[6],< 0.025 mg/kg
CO[C@@]12C(COC(N)=O)C3=C(C(=O)C(C)=C(OCCC#N)C3=O)N1CC1NC12 (some centres undefined),T/C,[9],141%
same,minimal effective dose at 1.2 mg/kg,[10],0.8 mg/kg
same,T/C,[11],200%
CO[C@@]12C(COC(N)=O)C3=C(C(=O)C(C)=C(OCCO)C3=O)N1CC1C2N1C (some centres undefined),logP,[3],0.67
same,T/C,[4],222%
same,minimal effective dose at 3.2 mg/kg,[12],0.05 mg/kg
C#CCOC1=C(C)C(=O)C2=C(C1=O)C(COC(N)=O)[C@@]1(OC)C3NC3CN21 (some centres undefined),logP,[3],0.74
same,T/C,[13],204%
same,T/C,[14],150%
same,minimal effective dose at 0.8 mg/kg,[15],< 0.05 mg/kg
CO[C@@]12C(COC(N)=O)C3=C(C(=O)C(C)=C(OCCN4CCOCC4)C3=O)N1CC1NC12 (some centres undefined),logP,[3],0.49
same,T/C,[16],113%
same,T/C,[4],256%
same,minimal effective dose at 3.2 mg/kg,[12],< 0.05 mg/kg
CO[C@@]12C(COC(N)=O)C3=C(C(=O)C(C)=C(OCCN(C)C)C3=O)N1CC1NC12 (some centres undefined),logP,[3],0.46
same,T/C,[7],220%
same,minimal effective dose at 1.6 mg/kg,[8],0.4 mg/kg
same,T/C,[4],281%
same,minimal effective dose at 3.2 mg/kg,[12],< 0.025 mg/kg
CO[C@@]12C(COC(N)=O)C3=C(C(=O)C(C)=C(OCC4COC(C)(C)O4)C3=O)N1CC1NC12 (some centres undefined),logP,[3],0.82
same,T/C,[17],221%
same,T/C,[18],240%
same,T/C,[13],198%
same,T/C,[19],133% and 147% and 170%
same,minimal effective dose at 0.8 mg/kg,[20],0.4 mg/kg
same,MED,[21],<0.3 mg/kg and 0.1 mg/kg
same,T/C,[14],178%
same,minimal effective dose at 0.8 mg/kg,[22],< 0.05 mg/kg
CCOC1=C(C)C(=O)C2=C(C1=O)C(COC(N)=O)[C@@]1(OC)C3NC3CN21 (some centres undefined),logP,[3],0.76
same,T/C,[23],215%
same,T/C,[16],212%
same,minimal effective dose at 0.2 mg/kg,[24],0.1 mg/kg
same,minimal effective dose at 0.4 mg/kg,[25],< 0.4 mg/kg
same,T/C,[5],188%
same,minimal effective dose at 1.6 mg/kg,[6],< 0.05 mg/kg
CO[C@@]12C(COC(N)=O)C3=C(C(=O)C(C)=C(OCC4CCCO4)C3=O)N1CC1NC12 (some centres undefined),logP,[3],1.29
same,T/C,[13]; 0.8 mg/kg,212% and 198%
same,T/C,[26],147%
same,T/C,[19],133%
same,minimal effective dose at 0.8 mg/kg,[20],0.2 mg/kg
same,MED,[20],0.2 mg/kg
same,T/C,[14],239%
same,minimal effective dose at 0.8 mg/kg,[15],< 0.05 mg/kg
COC1=C(C)C(=O)C2=C(C1=O)[C@@H](COC(N)=O)[C@@]1(OC)[C@H]3N[C@H]3CN21 [MITOMYCIN A],logP,[3],0.26
same,T/C,[27],177%
same,minimal effective dose at 0.3 mg/kg,[28],0.05 mg/kg
same,T/C,[4],180%
same,minimal effective dose at 3.2 mg/kg,[12],0.05 mg/kg
